# Experimental data taken from patent US6521619B2, “Aryl phenylcyclopropyl sulfide derivatives and their use as cell adhesion inhibiting anti-inflammatory and immune suppressive agents” (Icos Corporation, priority 2000, dated 2003).
# Tests used:
# [1] = target: T1, ICAM-1/LFA-1 interaction (recombinant LFA-1, biotinylated recombinant ICAM-1/Ig) (Homo sapiens, UniProt P20701); test: ICAM-1/LFA-1 Biochemical Interaction Assay (46A); type: binding; conditions: for inhibition at 2 µM: read-out: % inhibition
# T1 construct: Recombinant LFA-1 (100 mL of 0.7 mg/ml, ICOS Corporation) in D-PBS is then added to each well
# T1 sequence (P20701 26-1170): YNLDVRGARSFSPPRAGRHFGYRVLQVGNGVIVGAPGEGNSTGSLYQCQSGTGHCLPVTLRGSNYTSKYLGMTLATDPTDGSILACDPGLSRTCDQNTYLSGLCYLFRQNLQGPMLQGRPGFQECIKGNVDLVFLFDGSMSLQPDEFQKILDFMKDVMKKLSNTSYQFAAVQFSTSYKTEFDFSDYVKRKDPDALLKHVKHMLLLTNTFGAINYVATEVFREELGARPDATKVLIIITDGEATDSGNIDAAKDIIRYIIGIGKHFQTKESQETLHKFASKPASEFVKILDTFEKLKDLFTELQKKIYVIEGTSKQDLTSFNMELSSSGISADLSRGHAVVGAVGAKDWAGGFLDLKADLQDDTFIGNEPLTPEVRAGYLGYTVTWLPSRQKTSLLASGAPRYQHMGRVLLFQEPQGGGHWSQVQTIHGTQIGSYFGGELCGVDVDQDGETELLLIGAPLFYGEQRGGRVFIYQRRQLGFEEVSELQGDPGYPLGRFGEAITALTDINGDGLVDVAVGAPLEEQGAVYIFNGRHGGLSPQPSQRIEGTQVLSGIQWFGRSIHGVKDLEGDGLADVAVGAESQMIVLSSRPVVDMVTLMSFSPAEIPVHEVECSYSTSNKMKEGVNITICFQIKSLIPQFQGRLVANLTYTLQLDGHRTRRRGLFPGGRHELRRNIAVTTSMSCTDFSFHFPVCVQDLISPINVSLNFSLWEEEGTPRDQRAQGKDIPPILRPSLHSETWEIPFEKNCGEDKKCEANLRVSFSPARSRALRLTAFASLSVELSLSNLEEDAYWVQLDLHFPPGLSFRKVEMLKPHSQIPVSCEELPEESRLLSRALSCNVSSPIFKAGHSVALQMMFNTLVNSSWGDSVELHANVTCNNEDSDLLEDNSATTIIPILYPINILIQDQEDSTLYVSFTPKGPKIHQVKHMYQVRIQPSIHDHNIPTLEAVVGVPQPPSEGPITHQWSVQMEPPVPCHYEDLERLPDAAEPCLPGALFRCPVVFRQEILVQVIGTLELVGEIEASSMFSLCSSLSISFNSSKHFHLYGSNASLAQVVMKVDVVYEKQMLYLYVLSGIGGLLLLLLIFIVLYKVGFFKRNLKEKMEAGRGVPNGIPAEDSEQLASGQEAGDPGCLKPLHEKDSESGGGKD
# T1 sequence (P05107 23-769 partner): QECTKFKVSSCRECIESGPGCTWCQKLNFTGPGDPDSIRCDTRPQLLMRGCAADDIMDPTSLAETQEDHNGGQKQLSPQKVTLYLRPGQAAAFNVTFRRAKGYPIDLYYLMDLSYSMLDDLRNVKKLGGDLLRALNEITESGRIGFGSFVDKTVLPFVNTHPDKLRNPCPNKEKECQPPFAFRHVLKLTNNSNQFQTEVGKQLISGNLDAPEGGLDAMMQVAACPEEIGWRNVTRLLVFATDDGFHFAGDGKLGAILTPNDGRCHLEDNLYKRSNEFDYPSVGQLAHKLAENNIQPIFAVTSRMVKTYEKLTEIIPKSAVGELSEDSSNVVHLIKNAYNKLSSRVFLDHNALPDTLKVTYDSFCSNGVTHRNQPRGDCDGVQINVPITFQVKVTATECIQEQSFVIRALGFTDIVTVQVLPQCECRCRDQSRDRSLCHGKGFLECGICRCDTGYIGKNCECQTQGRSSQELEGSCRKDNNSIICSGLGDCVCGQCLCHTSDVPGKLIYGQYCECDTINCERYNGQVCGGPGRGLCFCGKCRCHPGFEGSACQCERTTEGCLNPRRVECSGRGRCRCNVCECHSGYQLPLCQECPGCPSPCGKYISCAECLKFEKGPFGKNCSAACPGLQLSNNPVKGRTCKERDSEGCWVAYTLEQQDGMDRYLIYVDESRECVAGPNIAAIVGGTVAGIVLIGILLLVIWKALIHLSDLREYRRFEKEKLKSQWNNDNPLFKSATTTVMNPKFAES
# Experimental: Compounds that antagonize the interaction between ICAM-1 and LFA-1 can be identified, and their activities quantitated, using both biochemical and cell-based adhesion assays. A primary biochemical assay, described below as assay 46A, was utilized to measure the ability of the present compounds to block the interaction between the integrin LFA-1 and its adhesion partner ICAM-1.
# 46A. ICAM-1/LFA-1 Biochemical Interaction Assay
# In the biochemical assay, 100 mL of anti-LFA-1 antibody (ICOS Corporation) at a concentration of 5 mg/ml in Dulbecco's phosphate-buffered saline (D-PBS) is used to coat wells of a 96-well microtiter plate overnight at 4° C. The wells are then washed twice with wash buffer (D-PBS w/o Ca^++ or Mg^++, 0.05% Tween 20) and blocked by addition of 200 mL of D-PBS, 5% fish skin gelatin. Recombinant LFA-1 (100 mL of 0.7 mg/ml, ICOS Corporation) in D-PBS is then added to each well. Incubation continues for 1 hour at room temperature and the wells are washed twice with wash buffer. Serial dilutions of compounds being assayed as ICAM-1/LFA-1 antagonists, prepared as 10 mM stock solutions in dimethyl sulfoxide (DMSO), are diluted in D-PBS, 2 mM MgCl2, 1% fish skin gelatin and 50 mL of each dilution added to duplicate wells. This is followed by addition of […] of 0.8 mg/ml biotinylated recombinant ICAM-1/Ig (ICOS Corporation) to the wells and the plates are incubated at room temperature for 1 hour The wells are then washed twice with wash buffer and 100 mL of Europium-labeled Streptavidin (Wallac Oy) diluted 1:100 in Delfia assay buffer (Wallac Oy) are added to the wells. Incubation proceeds for 1 hour at room temperature. […] Incubation proceeds for 5 minutes with constant mixing.
# where “background” refers to wells that are not coated with anti-LFA-1 antibody.
# [2] = system: JY-8 cells (expressing LFA-1) adhering to immobilized ICAM-1; test: ICAM-1/JY-8 Cell Adhesion Assay (46B); type: cell-based, human; conditions: JY-8 cell adhesion to ICAM-1; for inhibition at 1 µM: @ 1 μM compound (cell); for inhibition at 2 µM / % inhibition: @ 2 μM compound (cell)
# Experimental: Biologically relevant activity of the compounds in this invention was confirmed using a cell-based adhesion assay, (described below as assay 46B) which measured the ability of the present compounds to block the adherence of JY-8 cells (a human EBV-transformed B cell line expressing LFA-1 on its surface) to immobilized ICAM-1.
# 46B. ICAM-1 /JY-8 Cell Adhesion Assay
# For measurement of inhibitory activity in the cell-based adhesion assay, 96-well microtiter plates are coated with 70 μL of recombinant ICAM-1/g (ICOS Corporation) at a concentration of 5 μg/mL in D-PBS w/o Ca^++ or Mg^++ overnight at 4° C. The wells are then washed twice with D-PBS and blocked by addition of 200 μL of D-PBS, 5% fish skin gelatin by incubation for 1 hour at room temperature. Fluorescent tagged JY-8 cells (a human EBV-transformed B cell line expressing LFA-1 on its surface; 50 μL at 2×10^6 cells/ml in RPMI 1640 (standard cell culture medium)/1% fetal bovine serum) are added to the wells. For fluorescent labeling of JY-8 cells, 5×10^6 cells washed once in RPMI 1640 are resuspended in 1 mL of RPMI 1640 containing 2 μM Calceiun AM (MolecularProbes), are incubated at 37° C for 30 minutes and washed once with RPMI-1640/1% fetal bovine serum. Dilutions of compounds to be assayed for ICAM-1/LFA-1 antagonistic activity are prepared in RPMI-1640/1% fetal bovine serum from 10 mM stock solutions in DMSO and 50 μL are added to duplicate wells. Microtiter plates are incubated for 45 minutes at room temperature and the wells are washed gently once with RPMI-1640/1% fetal bovine serum. Fluorescent intensity is measured in a fluorescent plate reader with an excitation wavelength at 485 nm and an emission wavelength at 530 nm. The percent inhibition of a candidate compound at a given concentration is calculated using the following equation: [formula]
# and these concentration/inhibition data are used to generate dose response curves, from which IC50 values are derived.
Compound,inhibition at 4 µM ([1]; @ 4 μM compound) [%],inhibition at 2 µM ([1]; @ 2 μM compound) [%],inhibition at 2 µM ([2]; Homo sapiens) [%],further results
"O=C(NCCCN1CCCC1=O)C1CC1c1ccc(Sc2ccccc2N2CCCCC2)c(C(F)(F)F)c1 (racemic) [Example 9, (±)-(2-Piperidin-1-ylphenyl)[2-trifluoromethyl-4-(trans-(2-((3-(1-pyrrolidin-2-onyl)-prop-1-ylamino)carbonyl)cycloprop1-yl)phenyl]sulfide]",95,,,"inhibition at 4 µM ([2]; Homo sapiens, @ 4 μM compound): 76%"
"CN(CCCN1CCCC1=O)C(=O)C1CC1c1ccc(Sc2ccccc2N2CCOCC2)c(C(F)(F)F)c1 (racemic) [Example 13, (±)-(2-Morpholin-1-ylphenyl)[2-trifluoromethyl-2-(trans-(2-((3-(1-pyrrolidin-2-onyl)-propyl-N-methylamino)carbonyl)cycloprop-1-yl)phenyl]sulfide]",93,,,inhibition at 1 µM ([2]; Homo sapiens): 86%
(±)-(2-Piperidin-1-ylphenyl)[2-trifluoromethyl-4-(trans-(2-((3-(1-pyrrolidin-2-onyl)-prop-1-ylamino)carbonyl)cycloprop1-yl)phenyl]sulfide [Example 9],,,,% inhibition ([1]; @ 2 μM compound): 97% @ 2 μM; % inhibition [2]: 89% @ 2 μM
(±)-(3-Morpholin-1-ylphenyl)[2-trifluoromethyl-4-(trans-(2-((3-(1-pyrrolidin-2-onyl)-prop-1-ylamino)carbonyl)cycloprop-1-yl)phenyl]sulfide [Example 11],,,,% inhibition ([1]; @ 4 μM compound): 96% @ 4 μM; % inhibition [2]: 86% @ 2 μM

# The next lines start with results.
inhibition at 4 µM ([1]; @ 4 μM compound) [%],inhibition at 2 µM ([1]; @ 2 μM compound) [%],Compound,inhibition at 2 µM ([2]; Homo sapiens) [%],further results
92,,"O=C(NCCCN1CCCC1=O)C1CC1c1ccc(Sc2ccccc2Br)c(Cl)c1Cl (racemic) [Example 14, (±)-(2-Bromophenyl)[2,3-dichloro-4-(trans-(2-((3-(1-pyrrolidin-2-onyl)-prop-1-ylamino)carbonyl)cycloprop-1-yl)phenyl]sulfide]",,inhibition at 1 µM ([2]; Homo sapiens): 80%
,96,"CC(C)c1ccccc1Sc1ccc(C2CC2C(=O)NCCC(=O)O)c(Cl)c1Cl (racemic) [Example 16, (±)-(2-Isopropylphenyl)[2,3-dichloro-4-(trans-(2-(2-carboxyethylamino)carbonyl)cycloprop-1-yl)phenyl]sulfide]",88,
,93,"CC(C)c1ccccc1Sc1ccc(C2CC2C(=O)N2CCC(C(=O)O)CC2)c(Cl)c1Cl (racemic) [Example 18, (±)-(2-Isopropylphenyl)[2,3-dichloro-4-(trans-(2-(4-carboxypiperidin-1-yl)carbonyl)cycloprop-1-yl)phenyl]sulfide]",84,
,94,"CC(=O)N1CCN(C(=O)C2CC2c2ccc(Sc3ccccc3C(C)C)c(Cl)c2Cl)CC1 (racemic) [Example 21, (±)-(2-Isopropylphenyl)[2,3-dichloro-4-(trans-(2-(4-acetylpiperazin-1-yl)carbonyl)cycloprop-1-yl)phenyl]sulfide]",88,
